Test results: the supplement of paper PMC10307832

Assays:
Test in all cases: relative viability (nuclei count vs DMSO), 5 days (fraction); higher = more cells survive
[1] = compound: COc1cc(Nc2ncc3c(n2)-c2ccc(Cl)cc2C(c2c(F)cccc2OC)=NC3)ccc1C(=O)O [Alisertib] + O=C(CCCCCCC(=O)Nc1ccccc1)NO [Vorinostat] (partner 1 µM)
Outline: (§1)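 The day after seeding in 1536-well plates, lung cancer cell lines were treated by pin tool with a single drug, or with a fixed anchor-drug dose together with five library-drug doses (not always all listed) in √10 steps. After 5 days, a combined fix-and-stain solution (final 0.05% Triton X-100, 1% formaldehyde, 1 ug/ml Hoechst) was added. Nuclei counted on 4× images gave relative viability as treated counts over vehicle counts, reported as the median of duplicate plates.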

[2] = compound: COc1cc(Nc2ncc3c(n2)-c2ccc(Cl)cc2C(c2c(F)cccc2OC)=NC3)ccc1C(=O)O [Alisertib] + Cc1nc(NC(=O)N2CCC[C@H]2C(N)=O)sc1-c1ccnc(C(C)(C)C(F)(F)F)c1 [Alpelisib] (partner 2 µM)
Outline: as §1

[3] = compound: COc1cc(Nc2ncc3c(n2)-c2ccc(Cl)cc2C(c2c(F)cccc2OC)=NC3)ccc1C(=O)O [Alisertib] + CC1(C)CCC(c2ccc(Cl)cc2)=C(CN2CCN(c3ccc(C(=O)NS(=O)(=O)c4ccc(N[C@H](CCN5CCOCC5)CSc5ccccc5)c(S(=O)(=O)C(F)(F)F)c4)cc3)CC2)C1 [Navitoclax] (partner 0.5 µM)
Outline: as §1

[4] = compound: COc1cc(Nc2ncc3c(n2)-c2ccc(Cl)cc2C(c2c(F)cccc2OC)=NC3)ccc1C(=O)O [Alisertib] + C[C@]1(O)C[C@@H](c2nc(-c3ccc4ccc(-c5ccccc5)nc4c3)c3c(N)nccn32)C1 [Linsitinib] (partner 1 µM)
Outline: as §1

In the case of LC-2-ad, the relative viability ([1]; first compound 0.005 µM) is reported as 0.454, the relative viability ([1]; first compound 0.01581 µM) is reported as 0.313 and the relative viability ([1]; first compound 0.05 µM) is reported as 0.24. For the same cell line, the relative viability ([1]; first compound 0.1581 µM) was 0.177, the relative viability ([1]; first compound 0.5 µM) was 0.161 and the relative viability ([2]; first compound 0.005 µM) was 0.766. For the same cell line, the relative viability ([2]; first compound 0.01581 µM) was 0.631, the relative viability ([2]; first compound 0.05 µM) was 0.209 and the relative viability ([2]; first compound 0.1581 µM) was 0.138. It also gave a relative viability ([2]; first compound 0.5 µM) of 0.0966, a relative viability ([3]; first compound 0.005 µM) of 0.328 and a relative viability ([3]; first compound 0.01581 µM) of 0.159. For the same cell line, the relative viability ([3]; first compound 0.05 µM) was 0.0861, the relative viability ([3]; first compound 0.1581 µM) was 0.114 and the relative viability ([3]; first compound 0.5 µM) was 0.0846. The relative viability ([4]; first compound 0.005 µM) was 0.643, the relative viability ([4]; first compound 0.01581 µM) was 0.399 and the relative viability ([4]; first compound 0.05 µM) was 0.187. It also gave a relative viability ([4]; first compound 0.1581 µM) of 0.135 and a relative viability ([4]; first compound 0.5 µM) of 0.121.
Work on HCC-15 yielded a relative viability ([1]; first compound 0.005 µM) of 0.777, a relative viability ([1]; first compound 0.01581 µM) of 0.588 and a relative viability ([1]; first compound 0.05 µM) of 0.201. It also gave a relative viability ([1]; first compound 0.1581 µM) of 0.167, a relative viability ([1]; first compound 0.5 µM) of 0.134 and a relative viability ([2]; first compound 0.005 µM) of 0.875. For the same cell line, the relative viability ([2]; first compound 0.01581 µM) was 0.662, the relative viability ([2]; first compound 0.05 µM) was 0.229 and the relative viability ([2]; first compound 0.1581 µM) was 0.148. The relative viability ([2]; first compound 0.5 µM) was 0.106, the relative viability ([3]; first compound 0.005 µM) was 0.657 and the relative viability ([3]; first compound 0.01581 µM) was 0.517. For the same cell line, the relative viability ([3]; first compound 0.05 µM) was 0.27, the relative viability ([3]; first compound 0.1581 µM) was 0.12 and the relative viability ([3]; first compound 0.5 µM) was 0.103. It also gave a relative viability ([4]; first compound 0.005 µM) of 0.863, a relative viability ([4]; first compound 0.01581 µM) of 0.725 and a relative viability ([4]; first compound 0.05 µM) of 0.275. The relative viability ([4]; first compound 0.1581 µM) was 0.159 and the relative viability ([4]; first compound 0.5 µM) was 0.113.
NCI-H2405 was tested, and the relative viability ([1]; first compound 0.005 µM) was 0.913, the relative viability ([1]; first compound 0.01581 µM) was 0.898 and the relative viability ([1]; first compound 0.05 µM) was 0.799. It also gave a relative viability ([1]; first compound 0.1581 µM) of 0.288, a relative viability ([1]; first compound 0.5 µM) of 0.213 and a relative viability ([2]; first compound 0.005 µM) of 0.817. It also gave a relative viability ([2]; first compound 0.01581 µM) of 0.707, a relative viability ([2]; first compound 0.05 µM) of 0.699 and a relative viability ([2]; first compound 0.1581 µM) of 0.42. For the same cell line, the relative viability ([2]; first compound 0.5 µM) was 0.248, the relative viability ([3]; first compound 0.005 µM) was 0.873 and the relative viability ([3]; first compound 0.01581 µM) was 0.778. For the same cell line, the relative viability ([3]; first compound 0.05 µM) was 0.574, the relative viability ([3]; first compound 0.1581 µM) was 0.198 and the relative viability ([3]; first compound 0.5 µM) was 0.135. It also gave a relative viability ([4]; first compound 0.005 µM) of 0.922, a relative viability ([4]; first compound 0.01581 µM) of 0.814 and a relative viability ([4]; first compound 0.05 µM) of 0.818. It also gave a relative viability ([4]; first compound 0.1581 µM) of 0.384 and a relative viability ([4]; first compound 0.5 µM) of 0.266.
Work on LXF-289 yielded a relative viability ([1]; first compound 0.005 µM) of 0.587, a relative viability ([1]; first compound 0.01581 µM) of 0.493 and a relative viability ([1]; first compound 0.05 µM) of 0.189. The relative viability ([1]; first compound 0.1581 µM) was 0.139, the relative viability ([1]; first compound 0.5 µM) was 0.188 and the relative viability ([2]; first compound 0.005 µM) was 0.909. For the same cell line, the relative viability ([2]; first compound 0.01581 µM) was 0.592, the relative viability ([2]; first compound 0.05 µM) was 0.215 and the relative viability ([2]; first compound 0.1581 µM) was 0.133. The relative viability ([2]; first compound 0.5 µM) was 0.0979, the relative viability ([3]; first compound 0.005 µM) was 0.847 and the relative viability ([3]; first compound 0.01581 µM) was 0.586. For the same cell line, the relative viability ([3]; first compound 0.05 µM) was 0.191, the relative viability ([3]; first compound 0.1581 µM) was 0.173 and the relative viability ([3]; first compound 0.5 µM) was 0.137. For the same cell line, the relative viability ([4]; first compound 0.005 µM) was 0.843, the relative viability ([4]; first compound 0.01581 µM) was 0.814 and the relative viability ([4]; first compound 0.05 µM) was 0.21. The relative viability ([4]; first compound 0.1581 µM) was 0.194 and the relative viability ([4]; first compound 0.5 µM) was 0.116.
Cell Line CAL-12T has a relative viability ([1]; first compound 0.005 µM) of 0.506, a relative viability ([1]; first compound 0.01581 µM) of 0.592 and a relative viability ([1]; first compound 0.05 µM) of 0.262. It also gave a relative viability ([1]; first compound 0.1581 µM) of 0.189, a relative viability ([1]; first compound 0.5 µM) of 0.169 and a relative viability ([2]; first compound 0.005 µM) of 1.19. The relative viability ([2]; first compound 0.01581 µM) was 0.382, the relative viability ([2]; first compound 0.05 µM) was 0.217 and the relative viability ([2]; first compound 0.1581 µM) was 0.249. For the same cell line, the relative viability ([2]; first compound 0.5 µM) was 0.183, the relative viability ([3]; first compound 0.005 µM) was 1.15 and the relative viability ([3]; first compound 0.01581 µM) was 0.568. The relative viability ([3]; first compound 0.05 µM) was 0.208, the relative viability ([3]; first compound 0.1581 µM) was 0.141 and the relative viability ([3]; first compound 0.5 µM) was 0.165. For the same cell line, the relative viability ([4]; first compound 0.005 µM) was 0.741, the relative viability ([4]; first compound 0.01581 µM) was 0.603 and the relative viability ([4]; first compound 0.05 µM) was 0.187. The relative viability ([4]; first compound 0.1581 µM) was 0.157 and the relative viability ([4]; first compound 0.5 µM) was 0.162.
Work on COR-L23 yielded a relative viability ([1]; first compound 0.005 µM) of 0.347, a relative viability ([1]; first compound 0.01581 µM) of 0.35 and a relative viability ([1]; first compound 0.05 µM) of 0.151. The relative viability ([1]; first compound 0.1581 µM) was 0.09, the relative viability ([1]; first compound 0.5 µM) was 0.0909 and the relative viability ([2]; first compound 0.005 µM) was 0.777. The relative viability ([2]; first compound 0.01581 µM) was 0.697, the relative viability ([2]; first compound 0.05 µM) was 0.369 and the relative viability ([2]; first compound 0.1581 µM) was 0.155. For the same cell line, the relative viability ([2]; first compound 0.5 µM) was 0.0816, the relative viability ([3]; first compound 0.005 µM) was 0.921 and the relative viability ([3]; first compound 0.01581 µM) was 0.965. It also gave a relative viability ([3]; first compound 0.05 µM) of 0.576, a relative viability ([3]; first compound 0.1581 µM) of 0.198 and a relative viability ([3]; first compound 0.5 µM) of 0.105. For the same cell line, the relative viability ([4]; first compound 0.005 µM) was 0.794, the relative viability ([4]; first compound 0.01581 µM) was 0.799 and the relative viability ([4]; first compound 0.05 µM) was 0.401. For the same cell line, the relative viability ([4]; first compound 0.1581 µM) was 0.178 and the relative viability ([4]; first compound 0.5 µM) was 0.121.
Cell Line NCI-H1755 has a relative viability ([1]; first compound 0.005 µM) of 0.768, a relative viability ([1]; first compound 0.01581 µM) of 0.776 and a relative viability ([1]; first compound 0.05 µM) of 0.433. The relative viability ([1]; first compound 0.1581 µM) was 0.386, the relative viability ([1]; first compound 0.5 µM) was 0.329 and the relative viability ([2]; first compound 0.005 µM) was 0.876. It also gave a relative viability ([2]; first compound 0.01581 µM) of 0.852, a relative viability ([2]; first compound 0.05 µM) of 0.63 and a relative viability ([2]; first compound 0.1581 µM) of 0.414. The relative viability ([2]; first compound 0.5 µM) was 0.248, the relative viability ([3]; first compound 0.005 µM) was 0.928 and the relative viability ([3]; first compound 0.01581 µM) was 0.99. For the same cell line, the relative viability ([3]; first compound 0.05 µM) was 0.682, the relative viability ([3]; first compound 0.1581 µM) was 0.356 and the relative viability ([3]; first compound 0.5 µM) was 0.181. For the same cell line, the relative viability ([4]; first compound 0.005 µM) was 1, the relative viability ([4]; first compound 0.01581 µM) was 0.947 and the relative viability ([4]; first compound 0.05 µM) was 0.62. The relative viability ([4]; first compound 0.1581 µM) was 0.5 and the relative viability ([4]; first compound 0.5 µM) was 0.271.
For NCI-H1437, the relative viability ([1]; first compound 0.005 µM) was 0.774, the relative viability ([1]; first compound 0.01581 µM) was 0.606 and the relative viability ([1]; first compound 0.05 µM) was 0.42. The relative viability ([1]; first compound 0.1581 µM) was 0.283, the relative viability ([1]; first compound 0.5 µM) was 0.213 and the relative viability ([2]; first compound 0.005 µM) was 0.91. For the same cell line, the relative viability ([2]; first compound 0.01581 µM) was 0.836, the relative viability ([2]; first compound 0.05 µM) was 0.425 and the relative viability ([2]; first compound 0.1581 µM) was 0.213. It also gave a relative viability ([2]; first compound 0.5 µM) of 0.112, a relative viability ([3]; first compound 0.005 µM) of 1.02 and a relative viability ([3]; first compound 0.01581 µM) of 0.892. The relative viability ([3]; first compound 0.05 µM) was 0.498, the relative viability ([3]; first compound 0.1581 µM) was 0.282 and the relative viability ([3]; first compound 0.5 µM) was 0.144. The relative viability ([4]; first compound 0.005 µM) was 0.951, the relative viability ([4]; first compound 0.01581 µM) was 0.775 and the relative viability ([4]; first compound 0.05 µM) was 0.365. For the same cell line, the relative viability ([4]; first compound 0.1581 µM) was 0.15 and the relative viability ([4]; first compound 0.5 µM) was 0.104.
